Experimental data published in ChEMBL document CHEMBL3228010, “Potential antitumor agents. 29. Quantitative structure-activity relationships for the antileukemic bisquaternary ammonium heterocycles” (J Med Chem, 1979).
“And” between values parts separate entries of the source, which are not always exact repeats. Equal entries are not always repeated.

Legend:
[1] = Displacement of ethidium from poly[d(A)]-poly[d(T)] DNA (unknown origin) by fluorimetric method
[2] = Displacement of ethidium from poly[d(G-C)]-poly[d(G-C)] DNA (unknown origin) by fluorimetric method
L1210 [3] = experiment: Antitumor activity against mouse L1210 cells […] in ip dosed C3H X DBA2 F1 hybrid mouse on day 0 and dosed at LD10 level once daily on days 1 to 5 assessed as increase in life span relative to control; type: functional
[4] = Displacement of ethidium from poly[d(A-T)]-poly[d(A-T)] DNA by fluorimetric method
[5] = Lipophilic-hydrophilic balance, Rm of the compound by partition chromatography; type: physicochemical
Bos taurus = species on record: Bos taurus; experiment: Displacement of ethidium from calf thymus DNA by fluorimetric method
Mus musculus = experiment: Toxicity in ip dosed C3H X DBA2 F1 hybrid mouse […] with mouse L1210 cells on day 0 and dosed once daily on days 1 to 5 measured after 50 days; type: organism-based; conditions: in vivo, 1200 h
L1210 [6] = experiment: Antitumor activity against mouse L1210 cells […] in ip dosed C3H X DBA2 F1 hybrid mouse on day 0 and dosed once daily on days 1 to 5 assessed as increase in life span relative to control; type: functional

With `C[n+]1cccc(NC(=O)c2ccc(C(=O)Nc3ccc[n+](C)c3)cc2)c1.Cc1ccc(S(=O)(=O)[O-])cc1.Cc1ccc(S(=O)(=O)[O-])cc1` the C50 [1] was 3.8 µM, the C50 [2] was 80 µM and the “log(ILSmax)” value (L1210 [3]) was under 1.4. It also gave a C50 [4] of 63 µM, a Rm [5] of 0 and a C50 (Bos taurus) of 61 µM. The LD10 (Mus musculus) was 5 mg/kg.
With `C[n+]1cccc(NC(=O)c2ccc(NC(=O)c3ccc(C(=O)Nc4ccc(C(=O)Nc5ccc[n+](C)c5)cc4)cc3)cc2)c1` the C50 [1] was 0.13 µM, the C50 [2] was 1.6 µM and 0.91 µM and the C50 [4] was 0.79 µM and 0.41 µM. The C50 (Bos taurus) was 0.83 µM and 0.42 µM.
In the case of `COc1cc(N)cc2c(Nc3ccc(NC(=O)c4ccc(Nc5cc[n+](C)cc5)cc4)cc3)cc[n+](C)c12.Cc1ccc(S(=O)(=O)[O-])cc1.Cc1ccc(S(=O)(=O)[O-])cc1`, the C50 [2] is reported as 0.61 µM, the “log(ILSmax)” value (L1210 [3]) is reported as 2.33 and the C50 [4] is reported as 0.1 µM. It also gave a Rm [5] of 0.07, a D40 (L1210 [6]) of 1.1 mg/kg and a C50 (Bos taurus) of 0.31 µM. The LD10 (Mus musculus) was 56 mg/kg.
With `Br.C/C(=N\NC(=N)N)c1ccc(NC(=O)c2ccc(Nc3cc[n+](C)c4ccc(N)cc34)cc2N)cc1.[Br-]` the C50 [2] was 0.78 µM, the “log(ILSmax)” value (L1210 [3]) was 2.25 and the C50 [4] was 0.21 µM. For the same compound, the Rm [5] was -0.41, the D40 (L1210 [6]) was 1.7 mg/kg and the C50 (Bos taurus) was 0.51 µM. The LD10 (Mus musculus) was 40 mg/kg.
In the case of `C[n+]1ccc(Nc2ccc(NC(=O)Nc3ccc(Nc4cc[n+](C)c5ccc(N)cc45)cc3)cc2)cc1.Cc1ccc(S(=O)(=O)[O-])cc1.Cc1ccc(S(=O)(=O)[O-])cc1`, the C50 [2] is reported as 1.2 µM, the “log(ILSmax)” value (L1210 [3]) is reported as 1.74 and the C50 [4] is reported as 0.28 µM. For the same compound, the Rm [5] was 0.17, the D40 (L1210 [6]) was 3 mg/kg and the C50 (Bos taurus) was 0.51 µM. It also gave an LD10 (Mus musculus) of 6 mg/kg.
In the case of `C[n+]1ccc(Nc2ccc(NC(=O)/C=C/c3ccc(/C=C/C(=O)Nc4ccc(Nc5cc[n+](C)cc5)cc4)cc3)cc2)cc1.Cc1ccc(S(=O)(=O)[O-])cc1.Cc1ccc(S(=O)(=O)[O-])cc1`, the C50 [2] is reported as 0.38 µM, the “log(ILSmax)” value (L1210 [3]) is reported as 1.88 and the C50 [4] is reported as 0.11 µM. The Rm [5] was -0.7, the D40 (L1210 [6]) was 5.1 mg/kg and the C50 (Bos taurus) was 0.31 µM. For the same compound, the LD10 (Mus musculus) was 10 mg/kg.
In the case of `C[n+]1cc(-c2ccc(NC(=O)/C=C/c3ccc(C(=O)Nc4ccc(-c5c[n+](C)c(N)nc5N)cc4)cc3)cc2)c(N)nc1N.Cc1ccc(S(=O)(=O)[O-])cc1.Cc1ccc(S(=O)(=O)[O-])cc1`, the C50 [2] is reported as 0.57 µM, the “log(ILSmax)” value (L1210 [3]) is reported as 2.2 and the C50 [4] is reported as 0.11 µM. The Rm [5] was -0.62, the D40 (L1210 [6]) was 10.7 mg/kg and the C50 (Bos taurus) was 0.4 µM. For the same compound, the LD10 (Mus musculus) was 50 mg/kg.
With `C[n+]1cccc(NC(=O)c2ccc(NC(=O)c3ccc(C(=O)Nc4ccc(C(=O)Nc5ccc[n+](C)c5)c(N)c4)cc3N)cc2)c1.Cc1ccc(S(=O)(=O)[O-])cc1.Cc1ccc(S(=O)(=O)[O-])cc1` the C50 [2] was 0.54 µM, the “log(ILSmax)” value (L1210 [3]) was 2.32 and the C50 [4] was 0.15 µM. It also gave a Rm [5] of -0.7, a D40 (L1210 [6]) of 1.4 mg/kg and a C50 (Bos taurus) of 0.39 µM. It also gave an LD10 (Mus musculus) of 9 mg/kg.
In the case of `C[n+]1cc(-c2ccc(NC(=O)c3ccc(Nc4cc[n+](C)c5ccccc45)cc3)cc2)c(N)nc1N.Cc1ccc(S(=O)(=O)[O-])cc1.Cc1ccc(S(=O)(=O)[O-])cc1`, the C50 [2] is reported as 2.73 µM, the “log(ILSmax)” value (L1210 [3]) is reported as 2.27 and the C50 [4] is reported as 0.22 µM. For the same compound, the Rm [5] was -0.01, the D40 (L1210 [6]) was 3.5 mg/kg and the C50 (Bos taurus) was 1.24 µM. For the same compound, the LD10 (Mus musculus) was 20 mg/kg.
For `COc1cccc2c(Nc3ccc(C(=O)Nc4ccc(Nc5cc[n+](C)cc5)cc4)cc3)cc[n+](C)c12.[Br-].[Br-]`, the C50 [2] was 1.62 µM, the “log(ILSmax)” value (L1210 [3]) was 2.14 and the C50 [4] was 0.16 µM. The Rm [5] was 0.3, the D40 (L1210 [6]) was 0.3 mg/kg and the C50 (Bos taurus) was 0.76 µM. For the same compound, the LD10 (Mus musculus) was 6 mg/kg.
In the case of `C[n+]1ccc(Nc2ccc(S(=O)(=O)Nc3ccc(Nc4c5ccccc5[n+](C)c5cc(N)ccc45)cc3)cc2)cc1.[O-][Cl+3]([O-])([O-])[O-].[O-][Cl+3]([O-])([O-])[O-]`, the C50 [2] is reported as 0.12 µM, the “log(ILSmax)” value (L1210 [3]) is reported as 2.18 and the C50 [4] is reported as 0.07 µM. For the same compound, the Rm [5] was 0.57, the D40 (L1210 [6]) was 5 mg/kg and the C50 (Bos taurus) was 0.1 µM. For the same compound, the LD10 (Mus musculus) was 35 mg/kg.
For `COc1cc(NC(=O)c2ccc(Nc3cc[n+](C)cc3)cc2)ccc1Nc1cc[n+](C)c2cc(N)ccc12.[Br-].[Br-]`, the C50 [2] was 1.18 µM, the “log(ILSmax)” value (L1210 [3]) was 2.23 and the C50 [4] was 0.15 µM. The Rm [5] was 0.14, the D40 (L1210 [6]) was 3 mg/kg and the C50 (Bos taurus) was 0.69 µM. For the same compound, the LD10 (Mus musculus) was 14 mg/kg.
With `C[n+]1ccc(-c2ccc(-c3ccc(-c4ccc(NC(=O)c5ccc(C(=O)Nc6ccc(-c7ccc(-c8ccc(-c9cc[n+](C)cc9)cc8)cc7)cc6)cc5)cc4)cc3)cc2)cc1.Cc1ccc(S(=O)(=O)[O-])cc1.Cc1ccc(S(=O)(=O)[O-])cc1` the C50 [2] was 1.15 µM, the “log(ILSmax)” value (L1210 [3]) was 2.28 and the C50 [4] was 0.4 µM. For the same compound, the Rm [5] was -0.3, the D40 (L1210 [6]) was 22 mg/kg and the C50 (Bos taurus) was 0.55 µM. For the same compound, the LD10 (Mus musculus) was 110 mg/kg.
For `C[n+]1cccc(NC(=O)c2ccc(NC(=O)/C=C/c3ccc(C(=O)Nc4ccc(C(=O)Nc5ccc[n+](C)c5)cc4)cc3)cc2)c1.Cc1ccc(S(=O)(=O)[O-])cc1.Cc1ccc(S(=O)(=O)[O-])cc1`, the C50 [2] was 0.23 µM, the “log(ILSmax)” value (L1210 [3]) was 1.99 and the C50 [4] was 0.22 µM. For the same compound, the Rm [5] was -0.95, the D40 (L1210 [6]) was 21 mg/kg and the C50 (Bos taurus) was 0.3 µM. The LD10 (Mus musculus) was 100 mg/kg.
In the case of `CC[n+]1cccc(NC(=O)c2ccc(NC(=O)c3ccc(NC(=O)c4ccc(C(=O)Nc5ccc[n+](CC)c5)cc4)cc3)cc2)c1.Cc1ccc(S(=O)(=O)[O-])cc1.Cc1ccc(S(=O)(=O)[O-])cc1`, the C50 [2] is reported as 0.65 µM, the “log(ILSmax)” value (L1210 [3]) is reported as 1.9 and the C50 [4] is reported as 0.43 µM. The Rm [5] was -0.44, the D40 (L1210 [6]) was 9.1 mg/kg and the C50 (Bos taurus) was 0.5 µM. The LD10 (Mus musculus) was 33 mg/kg.
In the case of `C[n+]1cccc(NC(=O)c2ccc(NC(=O)c3ccc(C(=O)Nc4ccc(C(=O)Nc5ccc[n+](C)c5)cc4)c4ccccc34)cc2)c1.Cc1ccc(S(=O)(=O)[O-])cc1.Cc1ccc(S(=O)(=O)[O-])cc1`, the C50 [2] is reported as 2.7 µM, the “log(ILSmax)” value (L1210 [3]) is reported as 1.84 and the C50 [4] is reported as 1.1 µM. The Rm [5] was 0.45, the D40 (L1210 [6]) was 54.5 mg/kg and the C50 (Bos taurus) was 1.5 µM. It also gave an LD10 (Mus musculus) of 140 mg/kg.
With `Br.C/C(=N\NC(=N)N)c1ccc(NC(=O)Nc2ccc(Nc3cc[n+](C)c4ccc(N)cc34)cc2)cc1.[Br-]` the C50 [2] was 0.53 µM, the “log(ILSmax)” value (L1210 [3]) was 2.2 and the C50 [4] was 0.25 µM. The Rm [5] was -0.15, the D40 (L1210 [6]) was 18.5 mg/kg and the C50 (Bos taurus) was 0.42 µM. For the same compound, the LD10 (Mus musculus) was 150 mg/kg.
In the case of `C[n+]1c2ccccc2c(Nc2ccc(NC(=O)Nc3ccc(NC(=N)NC(=N)N)cc3)cc2)c2ccc(N)cc21.Cl.[Cl-]`, the C50 [2] is reported as 0.13 µM, the “log(ILSmax)” value (L1210 [3]) is reported as 2.48 and the C50 [4] is reported as 0.06 µM. It also gave a Rm [5] of 0.46, a D40 (L1210 [6]) of 8 mg/kg and a C50 (Bos taurus) of 0.09 µM. For the same compound, the LD10 (Mus musculus) was 200 mg/kg.
In the case of `C[n+]1cccc(NC(=O)c2ccc(NC(=O)c3ccc(C(=O)Nc4ccc(C(=O)Nc5ccc[n+](C)c5)cc4)c(Cl)c3)cc2)c1.Cc1ccc(S(=O)(=O)[O-])cc1.Cc1ccc(S(=O)(=O)[O-])cc1`, the C50 [2] is reported as 2 µM, the “log(ILSmax)” value (L1210 [3]) is reported as 2.11 and the C50 [4] is reported as 0.95 µM. The Rm [5] was 0.05, the D40 (L1210 [6]) was 5.6 mg/kg and the C50 (Bos taurus) was 1 µM. For the same compound, the LD10 (Mus musculus) was 30 mg/kg.
With `C[n+]1ccc(-c2ccc(NC(=O)c3ccc(Nc4cc[n+](C)c5ccccc45)cc3)cc2)cc1.Cc1ccc(S(=O)(=O)[O-])cc1.Cc1ccc(S(=O)(=O)[O-])cc1` the C50 [2] was 3 µM, the “log(ILSmax)” value (L1210 [3]) was 2.08 and the C50 [4] was 0.3 µM. The Rm [5] was 0.33, the D40 (L1210 [6]) was 2.2 mg/kg and the C50 (Bos taurus) was 0.89 µM. For the same compound, the LD10 (Mus musculus) was 15 mg/kg.
